Assay results from patent publication US20020115723A1, “Cysteine derivatives” (AJINOMOTO CO., INC., priority 1998, published 2002).
“And” between values parts separate entries of the source, which are not always exact repeats. Identical values can stand only once.

Columns and labels:
NF-κB = assay: Test on the function of inhibiting the activation of NF-κB induced by ultraviolet rays (gel shift assay); format: cell-based, human; settings: human epidermal cells, UVB 50 mJ/cm^2
Experimental: Test on the Function of Inhibiting the Activation of NF-κB Induced by Ultraviolet Rays.
After 18 hours had elapsed, the culture medium was substituted by a phenol red-free medium. The cells were exposed to ultraviolet rays (UVB: 50 mJ/cm^2) from an ultraviolet irradiator “Dermaray M-DMR-80” (ex Toshiba Medical Supply Co., Ltd.). After 4 to 5 hours had elapsed, the cells were collected, and the nucleoprotein was extracted therefrom in a manner known per se in the art. From the resulting nucleoprotein, the activated NF-κB was detected in accordance with the gel shift assay. The amount of the NF-κB was determined by measuring the radioactive value of the NF-κB band with the use of a bioimaging analyzer “BAS 2000” (ex Fuji Film Co., Ltd.).
The inhibition ratio of the activation of the NF-κB of the test compounds was calculated from the below-described formula (1).
Inhibition ratio of NF-κB activation (%)={1−(A1-A3)/(A2-A3)}×100 (1)
A1: radioactive value of the NF-κB upon addition of a test compound
A2: radioactive value of NF-κB when a test compound is not added
A3: radioactive value of NF-κB when a test compound is not added and is not exposed to ultraviolet rays.

human epidermal cells = assay: Toxicity to the cultured human epidermal cells seen in the NF-κB / AP-1 activation tests; format: cell-based
Experimental: Each of the test compounds was added to a culture plate at a concentration within an extent not causing a damage to the human epidermal cells which had reached the confluent stage in the culture plate. After 18 hours had elapsed, the culture medium was substituted by a phenol red-free medium. The cells were exposed to ultraviolet rays (UVB: 50 mJ/cm^2) from an ultraviolet irradiator “Dermaray M-DMR-80” (ex Toshiba Medical Supply Co., Ltd.). After 4 to 5 hours had elapsed, the cells were collected, and the nucleoprotein was extracted therefrom in a manner known per se in the art. From the resulting nucleoprotein, the activated NF-κB was detected in accordance with the gel shift assay. The amount of the NF-κB was determined by measuring the radioactive value of the NF-κB band with the use of a bioimaging analyzer “BAS 2000” (ex Fuji Film Co., Ltd.).
(§1) In a similar manner to Test Example 1, a nucleoprotein was obtained. Then, the activated AP-1 was detected by the gel shift assay. The radioactive value of the AP-1 band was measured as in Test Example 1, whereby the amount of the AP-1 was determined. The AP-1 activation inhibiting ratio of the test compounds was calculated by the below-described equation (2). The results of the test compounds according to the present invention are shown below in Table 4a, while those of the comparative compounds are shown below in Table 4b.

Hairless mice (SKH-1) [1] = assay: Test on suppressing function of wrinkles formation induced by ultraviolet rays (No. 1); format: in vivo, mouse; settings: for Wrinkle score, individual mouse / Wrinkle score, Average: 10% applied; for Wrinkle score, individual mouse: score 0 to 5
Experimental: Test on Suppressing Function of Wrinkles Formation Induced by Ultraviolet Rays (No. 1)
(§2) Hairless mice (SKH-1, female, 5-6 weeks old) were exposed to ultraviolet rays (UVB) three times/week (Monday, Wednesday and Friday) for 5 weeks, each at 50 to 100 mJ/cm^2 by using the above-described “Dermaray M-DMR-80” (ex Toshiba Medical Supply Co., Ltd.). The test compound (N,N′-diacetyl-L-cystine dimethyl ester) was dissolved in a mixed solvent of propylene glycol, ethanol and water, and was applied to the back portion of each of the mice in an amount of 100 μl, 30 to 60 minutes before exposure to ultraviolet rays, just after the completion of the exposure, and on the days free from exposure to ultraviolet rays (Sunday, Tuesday, Thursday and Saturday). From two weeks after the exposure had started, the wrinkles formed on the back portion of each mouse were evaluated once a week based on the below-described standards, and they were indicated as scores. In addition, the function of the inventive compound for inhibiting wrinkle formation induced by ultraviolet rays was judged based on the below-described judging standards.

AP-1 = assay: Test on the function of inhibiting the AP-1 activation induced by ultraviolet rays (gel shift assay); format: cell-based, human; settings: single compound
Experimental: Test on the Function of Inhibiting the AP-1 Activation Induced by Ultraviolet Rays.
as §1
AP-1 activation inhibiting ratio (%)={1−(B1-B3)/(B2-B3)}×100 (2)
B1: radioactive value of the AP-1 band upon addition of a test compound.
B2: radioactive value of the AP-1 band when a test compound is not added.
B3: radioactive value of the AP-1 band when a test compound is not added and is not exposed to ultraviolet rays.

Hairless mice (SKH-1) [2] = assay: Test on inhibiting function of wrinkles formation induced by ultraviolet rays (No. 2), Components (A) and (B) in combination; format: in vivo, mouse; set-up: scale not given here; settings: 10% alone
Experimental: as §2
Test on Inhibiting Function of Wrinkles Formation Induced by Ultraviolet Rays (No. 2)
Function of suppressing ultraviolet ray-induced wrinkles formation by the synergistic effects when Components (A) and (B) were used in combination, was judged in a similar manner to Test Example 2. Fifteen to twenty mice were divided into 4 groups, that is, a 1st group to which a mixed solvent of propylene glycol, ethanol and water was to be applied, a 2nd group to which a solution of only Component (A) dissolved in the above-described solvent was to be applied, a 3rd group to which a solution of only Component (B) dissolved in the above-described solvent was to be applied, and a 4th group to which a solution of both Components (A) and (B) dissolved in the above-described solvent was to be applied. An average score of each group was determined.

| Structure (SMILES) | Inhibition ratio (%) of NF-κB activation (NF-κB; addition concentration 0.5 mM) [%] | Inhibition ratio (%) of NF-κB activation (NF-κB; addition concentration 1 mM) [%] | Toxicity expressed (inhibition ratio) (human epidermal cells; addition concentration 5 mM, NF-κB test) | Inhibition ratio (%) of NF-κB activation (NF-κB; addition concentration 0.01 mM) [%] | Inhibition ratio (%) of NF-κB activation (NF-κB; addition concentration 0.1 mM) [%] | Wrinkle score, individual mouse (Hairless mice (SKH-1) [1]; 2nd week of UVB exposure) | Wrinkle score, Average (Hairless mice (SKH-1) [1]; 2nd week, solvent group 2.6) | Wrinkle score, individual mouse (Hairless mice (SKH-1) [1]; 3rd week of UVB exposure) | Wrinkle score, Average (Hairless mice (SKH-1) [1]; 3rd week, solvent group 3.6) | Wrinkle score, individual mouse (Hairless mice (SKH-1) [1]; 4th week of UVB exposure) | Wrinkle score, Average (Hairless mice (SKH-1) [1]; 4th week, solvent group 4.0) | Wrinkle score, individual mouse (Hairless mice (SKH-1) [1]; 5th week of UVB exposure) | Wrinkle score, Average (Hairless mice (SKH-1) [1]; 5th week, solvent group 4.4) | Effect on wrinkle formation induced by ultraviolet rays (in words) (Hairless mice (SKH-1) [1]; summary of Table 3) | AP-1 activation Inhibiting ratio (%) (AP-1; 10 μM) | Wrinkle score (group average) (Hairless mice (SKH-1) [2]; 4th week) | Wrinkle score (group average) (Hairless mice (SKH-1) [2]; 5th week) | Toxicity expressed (in inhibiting ratio column) (human epidermal cells; 100 μM, AP-1 test) | AP-1 activation Inhibiting ratio (%) (AP-1; 1 μM) |
| --- | --- | --- | --- | --- | --- | --- | --- | --- | --- | --- | --- | --- | --- | --- | --- | --- | --- | --- | --- |
| CCOC(=O)[C@@H](N)CS [L-cysteine ethyl ester] | 60 | 61 | Toxity | – | – | – | – | – | – | – | – | – | – | – | – | – | – | – | – |
| COC(=O)[C@H](CSSC[C@H](NC(C)=O)C(=O)OC)NC(C)=O [N,N′-diacetyl-L-cystine dimethyl ester] | – | – | – | 47 | 86 | 2 and 1 (4×) and 0 and 3 | 1.3 | 2 (5×) and 3 and 1 | 2.0 | 3 (3×) and 5 (2×) and 2 and 4 | 3.6 | 2 (3×) and 3 (3×) and 4 | 2.7 | exhibited effects for retarding and alleviating the wrinkle formation induced by ultraviolet rays | 4 | 5.0 and 3.0 and 2.5 | 4.0 and 2.0 | – | – |
| CC1=C(/C=C/C(C)=C/C=C/C(C)=C/C=C/C=C(C)/C=C/C=C(C)/C=C/C2=C(C)C(=O)[C@@H](O)CC2(C)C)C(C)(C)C[C@H](O)C1=O [astaxantin] | – | – | – | – | – | – | – | – | – | – | – | – | – | – | 0 | – | – | Toxicity | −54 |
